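Results reflect a 48-hour exposure of cells in 96-well plates to compound at five concentrations. GI50: concentration for 50% inhibition of growth. The concentration for full growth arrest is given as TGI.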
Tests used:
Assay in all cases: growth of human tumour cells (NCI), 48 h
PC-3 prostate = system: PC-3 prostate
MALME-3M melanoma = system: MALME-3M melanoma
SK-MEL-28 melanoma = system: SK-MEL-28 melanoma
HCT-15 colon = system: HCT-15 colon
HCC-2998 colon = system: HCC-2998 colon
NCI-H460 lung = system: NCI-H460 lung
KM12 colon = system: KM12 colon
HCT-116 colon = system: HCT-116 colon
SK-MEL-2 melanoma = system: SK-MEL-2 melanoma
BT-549 breast = system: BT-549 breast

Row | SMILES | TGI (PC-3 prostate) [µM] | TGI (MALME-3M melanoma) [µM] | TGI (SK-MEL-28 melanoma) [µM] | TGI (HCT-15 colon) [µM] | TGI (HCC-2998 colon) [µM] | TGI (NCI-H460 lung) [µM] | TGI (KM12 colon) [µM] | TGI (HCT-116 colon) [µM] | TGI (SK-MEL-2 melanoma) [µM] | TGI (BT-549 breast) [µM] | GI50 (PC-3 prostate) [µM] | GI50 (MALME-3M melanoma) [µM] | GI50 (SK-MEL-28 melanoma) [µM] | GI50 (HCT-15 colon) [µM] | GI50 (HCC-2998 colon) [µM] | GI50 (NCI-H460 lung) [µM] | GI50 (KM12 colon) [µM] | GI50 (HCT-116 colon) [µM] | GI50 (SK-MEL-2 melanoma) [µM] | GI50 (BT-549 breast) [µM]
1 | CCN(CC)CCN(C)CCc1ccc(Br)cc1 | > 100 | > 100 | > 100 | > 100 | > 100 | > 100 | > 100 | > 100 | > 100 | > 100 | – | – | – | – | – | – | – | – | – | –
2 | Oc1[nH]c2ccccc2c1/C=c1/cc2c(c(-c3ccc(C(F)(F)F)cc3)n1)=Nc1ccccc1-2 | 47.4 | 27.4 | 18.8 | 15.8 | 24.4 | 10.5 | 12.2 | 10.1 | 28.7 | 15.7 | 2.59 | 9.14 | 1.84 | 3.59 | 9.32 | 2.56 | 2.16 | 2.9 | 8.66 | 4.17
3 | NC(=O)C1=CC2C3C=CC2(O)C(=O)OC3O1 (stereo not given) | 37.7 | 4.03 | 8.48 | 13.9 | 26.7 | 43.2 | 11.4 | 7.41 | > 40.2 | 17.3 | – | – | – | – | – | – | – | – | – | –
4 | [N-]=[N+]=C(C(=O)C(=[N+]=[N-])C(=O)c1ccccc1)C(=O)c1ccccc1 | > 100 | > 100 | > 100 | > 100 | > 100 | > 100 | > 100 | > 100 | > 100 | > 100 | – | – | – | – | – | – | – | – | – | –
5 | O=C1C=C(N2CCN(c3ccccn3)CC2)C(=O)c2c(O)ccc(O)c21 | > 56.2 | 1.63 | > 56.2 | 39.1 | 43.1 | 38.1 | > 46.4 | 10.3 | 18.6 | > 100 | – | – | – | – | – | – | – | – | – | –
6 | O=P(O)(O)CN1CCNCCN(CP(=O)(O)O)CCNCC1 | > 100 | > 100 | > 100 | > 100 | > 100 | 13.1 | > 100 | > 100 | > 100 | > 100 | – | – | – | – | – | – | – | – | – | –
7 | Cc1cc(S(=O)(=O)O)c(NC(=O)c2oc3cc(O)ccc3c(=O)c2C)cc1Cl | > 100 | > 100 | > 100 | > 100 | > 100 | > 100 | > 100 | > 100 | > 100 | > 100 | – | – | – | – | – | – | – | – | – | –
8 | Cc1cn([C@H]2[C@@H](CO)C[C@H]2O)c(=O)[nH]c1=O | > 100 | > 100 | > 100 | > 100 | > 100 | > 100 | > 100 | > 100 | > 100 | > 100 | – | – | – | – | – | – | – | – | – | –
9 | COc1ccc(C(=O)c2ccc(-n3cc(/C=C/[N+](=O)[O-])c4ccccc43)cc2)cc1 | 49.9 | 46.8 | > 89.2 | 41.1 | 48.9 | > 66.1 | 55.2 | 28.2 | 58 | 33.7 | – | – | – | – | – | – | – | – | – | –
10 | CC12CC(c3ccccc3O1)C(C(=O)Nc1cccc(F)c1)C(=O)N2 (stereo not given) | > 100 | > 100 | > 100 | > 100 | > 100 | > 100 | > 100 | > 100 | > 100 | 66.8 | – | – | – | – | – | – | – | – | – | –
11 | O=C1CC2(CCNCC2)C(=O)N1N1CCOCC1 | > 100 | > 100 | > 100 | > 100 | > 100 | > 100 | > 100 | > 100 | > 100 | > 100 | – | – | – | – | – | – | – | – | – | –
12 | CC1(C)CCC2(C(=O)OC3OC(CO)C(O)C(O)C3O)CCC3(CO)C(=CCC4C5(C)CC(O)C(O)C(C)(C(=O)OC6OC(CO)C(O)C(O)C6O)C5CCC43C)C2C1 (stereo not given) | > 100 | > 100 | > 100 | > 100 | > 100 | > 100 | > 100 | > 100 | > 100 | > 100 | – | – | – | – | – | – | – | – | – | –
13 | C=CCOC(=O)CCCCCCCCCCCCCCCOC(=O)C1=C(CCC[C@@H](C)O[Si](C)(C)C(C)(C)C)NC(=O)N2[C@H](CC3(CC/C=C\[C@H](CC)O[Si](C(C)C)(C(C)C)C(C)C)OCCO3)CC[C@H]12 | > 100 | > 100 | > 100 | > 100 | > 100 | > 100 | > 100 | > 100 | > 100 | > 100 | – | – | – | – | – | – | – | – | – | –
14 | CC(C)=CCC[C@@H](C)c1c2[nH]c3ccccc3sc-2c(C)c(=O)c1=O | > 75 | > 29.1 | > 75 | > 75 | > 36.8 | > 27 | > 35.2 | 21.8 | 30.7 | > 75 | – | – | – | – | – | – | – | – | – | –
15 | O=C1CSc2nnc(CCCCCCCCc3nnc4n3NC(=O)CS4)n2N1 | > 100 | > 100 | > 100 | > 100 | > 100 | > 100 | > 100 | > 100 | > 100 | > 100 | – | – | – | – | – | – | – | – | – | –

— PubChem BioAssay (NCI)
